The subject of one test is primary mouse NK cells. Put plainly: IL-15-cultured primary mouse NK cells (flow cytometry, Western). Type of test: cell-based. The conditions noted are these: for granzyme B in primary NK cells: WNT3a 2 nM, CHIR 1 μM. How it is done: Cells in single cell suspension were fixed with 2% PFA (Santa-Cruz sc-281692). After washing with a Flow Cytometry Staining Buffer (eBioscience 00-4222-26), cells were stained with antibodies for cell surface markers for 1 hour on ice in the dark. For staining of intracellular proteins, the cells were washed and resuspended in the Permeabilization Buffer (BD 554723) and stained by antibodies in the Permeabilization Buffer for 1 hour on ice in the dark. The cells were then pelleted and resuspended in the Flow Cytometry Staining Buffer for flow cytometry analysis.
Mouse primary NK and CD8+ T cells were isolated from the spleens by using the NK cell and CD8+ T cell isolation kits according to the manufacturer's instructions (Miltenyi Biotec #130-090-864 and #130-104-075), respectively. Primary NK cells were cultured in RPMI-1640 (Gibco, 11875-093) supplemented with 10% FBS, penicillin (100 U/ml), streptomycin (100 μg/ml), 2-mercaptoethanol (500 μM) and HEPES (10 mM) at 37° C. supplemented with 5% CO2 in the presence of recombinant murine IL-15 (50 ng/ml) for 24 hours before treatment with DKK2, CHIR99021, or WNT3A. CD8+ T cells were cultured in the same culture medium and condition as NK cells, but supplemented with IL-15 (200 ng/ml) and IL-15 Rα (1 μg/ml recombinant Mouse IL-15 receptor alpha Fc chimera Protein from R&D) for 96 hours before DKK2 treatment. Mouse primary intraepithelial lymphocytes (IELs) were prepared as described in (Little et al., The Journal of Immunology 175, 6713-6722 (2005) and Li et al. Infect Immun 80, 565-574 (2012)). In brief, the small intestine was everted, divided into four pieces, and washed twice in phosphate-buffered saline (PBS) containing 100 U/ml penicillin/streptomycin The specimens were then incubated with stirring at 37° C. in prewarmed Ca2+ and Mg2+-free Hanks' solution containing 100 U/ml penicillin-streptomycin, 5% fetal calf serum (FCS), 2 mM dithiothreitol (DTT), and 5 mM EDTA for 30 min, followed by vigorous shaking for 30 s. The supernatants were passed over two nylon wool columns to remove undigested tissue debris. The lymphocytes obtained were pooled and enriched on a discontinuous (40% and 70%) Percoll density gradient. Cells at the interface between the 40% and […], fractions (IELs) were collected for treatment with IL-15 (200 ng/ml) and DKK2 (200 ng/ml), followed by flow analysis.
(In flow cytometry, cells or beads pass a laser one at a time.)

Test [1] relates to Wnt reporter gene TOPFlash. Put plainly: Wnt reporter gene (TOPFlash) assay in HEK293 cells. Type of test: cell-based. The conditions noted are these: for Wnt reporter gene activity: DKK2 5 nM, Wnt3a 2 nM, CHIR 1 μM, 6 hrs (FIG. 10D). How it is done:
The Stat5 reporter assays were done in HEK293T cells for activated JAK1-induced activity or in those stably expressing JAK3, IL2/15Rβ and the common receptor γ subunit for IL15 induced activity. Cells were seeded at 8×10^4 cells per well in 48 well plate. The next day, cells were transfected by Lipofectamine 2000 (Invitrogen) with the pGL4.52-STAT5-Luciferase (Promega) and tagRFP (internal control) plasmids together with other plasmids expressing genes of interest. The total amount of plasmid was kept at 125 ng per well. The cells were added 24 hours after transfection with IL15/IL15Rα-Fc complex or mock. Six hours later, the cells were lysed and subjected to RFP fluorescence and luciferase luminescence measurement using an Envision Multilabel plate reader. The reporter gene activity is shown after being normalized against RFP readings. The LEF reporter assay was carried out in HEK293 cells that were transfected with the TOPFlash and GFP plasmids. The rest is the same as above. The reporter gene activity is shown after being normalized against GFP readings.
A functional mouse monoclonal anti-DKK2 antibody (5F8) was developed to specifically target and neutralize DKK2, but to not cross react with DKK-1. […] It has been shown that DKK2 as well as other DKK family proteins, inhibit canonical Wnt signaling by binding to Wnt co-receptor LRP 5/6 with high affinity and competing with Wnt molecules for receptor binding (MacDonald, B., et al., Dev Cell, 2009. 17(1): p. 9-26; Bao, J., et al., Sci Signal, 2012. 5(224): pe22). To determine if 5F8 diminished DKK2 inhibition of Wnt signaling, a Wnt reporter gene assay was used to measure Wnt activity. HEK293 cells were transfected with Wnt reporter gene TOPFlash and Wnt reporter activity was examined.
In general terms: A reporter such as luciferase makes a cellular process visible.

On to `Cc1c[nH]c(-c2cnc(NCCNc3ccc(C#N)cn3)nc2-c2ccc(Cl)cc2Cl)n1` [CHIR99021, reference compound], for which the “granzyme B in primary NK cells” value with primary mouse NK cells (24 hours) was “no significant effect on granzyme B”. Moreover, the “Wnt reporter gene activity” value in test [1] was “strong effect on Wnt reporter gene activity”.
Regarding WNT3A, the “β-catenin accumulation in LRP5-deficient NK cells” value in the test on primary mouse NK cells (LRP5-deficiency) is on record as “did not affect β-catenin accumulation”. For the same compound, the “β-catenin accumulation in LRP6-deficient NK cells” value in the test on primary mouse NK cells (LRP6-deficient) is reported as “did not induce β-catenin accumulation”. Also, the “β-catenin accumulation in primary NK cells” value with primary mouse NK cells (WNT3A 5 nM, 24 hours, Western) is on record as “induced β-catenin accumulation”. The “granzyme B in primary NK cells” value in the test with primary mouse NK cells (24 hours) was “no significant effect on granzyme B expression”. In test [1], the “Wnt reporter gene activity” value is recorded as “a strong increase in the reporter gene activity”. For the same compound, in test [1] (HEK293, TOPFlash, conditioned medium (FIG. 1E)), the Wnt reporter activity result is reported as “increased Wnt reporter activity”.

For the origin of these results see patent publication US20200179510A1, “LOW DENSITY LIPOPROTEIN RECEPTOR RELATED PROTEIN 5 INHIBITION SUPPRESSES TUMOR FORMATION” (YALE UNIVERSITY, priority 2017, published 2020).
